Measurements as given in US20250171437A1 (Agios Pharmaceuticals,Inc., priority 2022, published 2025).

Biological target: T1, human PAH with the R408W mutation (A375 R408W cells) (Homo sapiens, UniProt P00439, R408W)
T1 construct: expressed in transfected cells
T1 sequence (P00439 1-452 R408W): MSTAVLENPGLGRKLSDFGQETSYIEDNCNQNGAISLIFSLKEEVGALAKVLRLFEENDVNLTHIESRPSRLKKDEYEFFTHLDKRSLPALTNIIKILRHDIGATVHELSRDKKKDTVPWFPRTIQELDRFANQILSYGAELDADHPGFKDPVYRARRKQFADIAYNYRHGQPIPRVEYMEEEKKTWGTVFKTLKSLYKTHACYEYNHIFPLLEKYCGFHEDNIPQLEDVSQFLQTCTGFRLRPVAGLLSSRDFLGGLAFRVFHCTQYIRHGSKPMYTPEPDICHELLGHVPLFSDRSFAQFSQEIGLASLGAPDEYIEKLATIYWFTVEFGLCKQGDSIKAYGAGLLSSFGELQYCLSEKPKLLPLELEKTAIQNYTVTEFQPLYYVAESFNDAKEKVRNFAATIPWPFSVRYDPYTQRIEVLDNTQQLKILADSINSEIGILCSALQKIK
Test: Cell Based Phenylalanine Flux Assay
Settings: A375 R408W cells; 24 hrs with compound, then 20 μM sepiapterin and 800 μM 13C9,15N-Phenylalanine for 4 hours; 13C-Tyrosine by LC-MS; average where tested multiple times
Outline: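 Puromycin-selected A375 line, lentiviral hPAH R408W; cmpd 24 h, 37 °C, 5% CO2, 0.5% DMSO; then 20 μM sepiapterin + 800 μM 13C9,15N-Phe, 4 h; media extracted in 80% MeCN; 13C-Tyr by LC-MS; AC50 from 10-pt curves.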

| Compound | AC50 [nM] |
| --- | --- |
| O=C(c1oc(-c2cncnc2)nc1C(F)F)N1CCc2[nH]cnc2[C@H]1c1nc2cc(F)ccc2o1 [Example 406, (S)-(4-(difluoromethyl)-2-(pyrimidin-5-yl)oxazol-5-yl)(4-(5-fluorobenzo[d]oxazol-2-yl)-6,7-dihydro-1H-imidazo[4,5-c]pyridin-5(4H)-yl)methanone] | ≤ 500 |
| Cc1ccc2oc([C@@H]3c4nc[nH]c4CCN3C(=O)c3oc(C(C)(C)O)nc3Br)nc2c1 [Example 407, (S)-(4-bromo-2-(2-hydroxypropan-2-yl)oxazol-5-yl)(4-(5-methylbenzo[d]oxazol-2-yl)-6,7-dihydro-1H-imidazo[4,5-c]pyridin-5(4H)-yl)methanone] | ≤ 500 |
| Cc1ccc2oc([C@H]3c4nc[nH]c4CCN3C(=O)c3oc(C(C)(C)O)nc3Br)nc2c1 [Example 408, (R)-(4-bromo-2-(2-hydroxypropan-2-yl)oxazol-5-yl)(4-(5-methylbenzo[d]oxazol-2-yl)-6,7-dihydro-1H-imidazo[4,5-c]pyridin-5(4H)-yl)methanone] | 500 to 1000 |
| O=C(CCc1cncs1)N1CCc2[nH]cnc2[C@H]1c1nc2cccc(F)c2o1 [Example 409, (S)-1-(4-(7-fluorobenzo[d]oxazol-2-yl)-6,7-dihydro-1H-imidazo[4,5-c]pyridin-5(4H)-yl)-3-(thiazol-5-yl)propan-1-one] | 500 to 1000 |
| O=C(CCc1cncs1)N1CCc2[nH]cnc2[C@@H]1c1nc2cccc(F)c2o1 [Example 410, (R)-1-(4-(7-fluorobenzo[d]oxazol-2-yl)-6,7-dihydro-1H-imidazo[4,5-c]pyridin-5(4H)-yl)-3-(thiazol-5-yl)propan-1-one] | 1000 to 5000 |
| Cn1ccc(-c2nc(C(F)F)c(C(=O)N3CCc4[nH]cnc4[C@H]3c3nc4cc(F)ccc4o3)o2)n1 [Example 411, (S)-(4-(difluoromethyl)-2-(1-methyl-1H-pyrazol-3-yl)oxazol-5-yl)(4-(5-fluorobenzo[d]oxazol-2-yl)-6,7-dihydro-1H-imidazo[4,5-c]pyridin-5(4H)-yl)methanone] | ≤ 500 |
| Cn1ccc(-c2nc(C(F)F)c(C(=O)N3CCc4[nH]cnc4[C@@H]3c3nc4cc(F)ccc4o3)o2)n1 [Example 412, (R)-(4-(difluoromethyl)-2-(1-methyl-1H-pyrazol-3-yl)oxazol-5-yl)(4-(5-fluorobenzo[d]oxazol-2-yl)-6,7-dihydro-1H-imidazo[4,5-c]pyridin-5(4H)-yl)methanone] | 500 to 1000 |
| O=C(c1oc(N2CCOCC2)nc1C(F)F)N1CCc2[nH]cnc2[C@H]1c1nc2cc(F)ccc2o1 [Example 413, (S)-(4-(difluoromethyl)-2-morpholinooxazol-5-yl)(4-(5-fluorobenzo[d]oxazol-2-yl)-6,7-dihydro-1H-imidazo[4,5-c]pyridin-5(4H)-yl)methanone] | 500 to 1000 |
| O=C(c1oc(N2CCOCC2)nc1C(F)F)N1CCc2[nH]cnc2[C@@H]1c1nc2cc(F)ccc2o1 [Example 414, (R)-(4-(difluoromethyl)-2-morpholinooxazol-5-yl)(4-(5-fluorobenzo[d]oxazol-2-yl)-6,7-dihydro-1H-imidazo[4,5-c]pyridin-5(4H)-yl)methanone] | 1000 to 5000 |
| CC(C)(O)c1nc(C(F)F)c(C(=O)N2CCc3[nH]cnc3[C@H]2c2nc3cc(Br)ccc3o2)o1 [Example 415, [(4S)-4-(5-bromo-1,3-benzoxazol-2-yl)-1,4,6,7-tetrahydroimidazo[4,5-c]pyridin-5-yl]-[4-(difluoromethyl)-2-(1-hydroxy-1-methyl-ethyl)oxazol-5-yl]methanone] | 500 to 1000 |
| CC(C)(O)c1nc(C(F)F)c(C(=O)N2CCc3[nH]cnc3[C@@H]2c2nc3cc(Br)ccc3o2)o1 [Example 416, [(4R)-4-(5-bromo-1,3-benzoxazol-2-yl)-1,4,6,7-tetrahydroimidazo[4,5-c]pyridin-5-yl]-[4-(difluoromethyl)-2-(1-hydroxy-1-methyl-ethyl)oxazol-5-yl]methanone] | 500 to 1000 |
| O=C(c1oc(-c2ccc(F)cn2)nc1C(F)F)N1CCc2[nH]cnc2[C@@H]1c1nc2cc(F)ccc2o1 [Example 417, (R)-(4-(difluoromethyl)-2-(5-fluoropyridin-2-yl)oxazol-5-yl)(4-(5-fluorobenzo[d]oxazol-2-yl)-6,7-dihydro-1H-imidazo[4,5-c]pyridin-5(4H)-yl)methanone] | ≤ 500 |
| O=C(c1oc(-c2ccc(F)cn2)nc1C(F)F)N1CCc2[nH]cnc2[C@H]1c1nc2cc(F)ccc2o1 [Example 418, (S)-(4-(difluoromethyl)-2-(5-fluoropyridin-2-yl)oxazol-5-yl)(4-(5-fluorobenzo[d]oxazol-2-yl)-6,7-dihydro-1H-imidazo[4,5-c]pyridin-5(4H)-yl)methanone] | ≤ 500 |
| O=C(c1oc(-c2cccnc2)nc1C(F)F)N1CCc2[nH]cnc2[C@@H]1c1nc2cc(F)ccc2o1 [Example 419, (R)-(4-(difluoromethyl)-2-(pyridin-3-yl)oxazol-5-yl)(4-(5-fluorobenzo[d]oxazol-2-yl)-6,7-dihydro-1H-imidazo[4,5-c]pyridin-5(4H)-yl)methanone] | 500 to 1000 |
| O=C(c1oc(-c2cccnc2)nc1C(F)F)N1CCc2[nH]cnc2[C@H]1c1nc2cc(F)ccc2o1 [Example 420, (S)-(4-(difluoromethyl)-2-(pyridin-3-yl)oxazol-5-yl)(4-(5-fluorobenzo[d]oxazol-2-yl)-6,7-dihydro-1H-imidazo[4,5-c]pyridin-5(4H)-yl)methanone] | ≤ 500 |
| O=C(c1oc(-c2ccncc2)nc1C(F)F)N1CCc2[nH]cnc2[C@H]1c1nc2cc(F)ccc2o1 [Example 421, (S)-(4-(difluoromethyl)-2-(pyridin-4-yl)oxazol-5-yl)(4-(5-fluorobenzo[d]oxazol-2-yl)-6,7-dihydro-1H-imidazo[4,5-c]pyridin-5(4H)-yl)methanone] | ≤ 500 |
| O=C(c1oc(-c2ccncc2)nc1C(F)F)N1CCc2[nH]cnc2[C@@H]1c1nc2cc(F)ccc2o1 [Example 422, (R)-(4-(difluoromethyl)-2-(pyridin-4-yl)oxazol-5-yl)(4-(5-fluorobenzo[d]oxazol-2-yl)-6,7-dihydro-1H-imidazo[4,5-c]pyridin-5(4H)-yl)methanone] | 500 to 1000 |
| CC(C)(O)c1nc(C(F)F)c(C(=O)N2CCc3[nH]cnc3[C@H]2c2nc3cccc(Cl)c3o2)o1 [Example 423, (S)-(4-(7-chlorobenzo[d]oxazol-2-yl)-6,7-dihydro-1H-imidazo[4,5-c]pyridin-5(4H)-yl)(4-(difluoromethyl)-2-(2-hydroxypropan-2-yl)oxazol-5-yl)methanone] | ≤ 500 |

The remaining lines, values ahead:

| AC50 [nM] | Compound |
| --- | --- |
| ≤ 500 | CC(C)(O)c1nc(C(F)F)c(C(=O)N2CCc3[nH]cnc3[C@@H]2c2nc3cccc(Cl)c3o2)o1 [Example 424, (R)-(4-(7-chlorobenzo[d]oxazol-2-yl)-6,7-dihydro-1H-imidazo[4,5-c]pyridin-5(4H)-yl)(4-(difluoromethyl)-2-(2-hydroxypropan-2-yl)oxazol-5-yl)methanone] |
| ≤ 500 | O=C(c1ocnc1C(F)F)N1CCc2[nH]cnc2[C@H]1c1nc2cccc(Cl)c2o1 [Example 425, (S)-(4-(7-chlorobenzo[d]oxazol-2-yl)-6,7-dihydro-1H-imidazo[4,5-c]pyridin-5(4H)-yl)(4-(difluoromethyl)oxazol-5-yl)methanone] |
| ≤ 500 | O=C(c1ocnc1C(F)F)N1CCc2[nH]cnc2[C@@H]1c1nc2cccc(Cl)c2o1 [Example 426, (R)-(4-(7-chlorobenzo[d]oxazol-2-yl)-6,7-dihydro-1H-imidazo[4,5-c]pyridin-5(4H)-yl)(4-(difluoromethyl)oxazol-5-yl)methanone] |
| ≤ 500 | COc1cccc2oc([C@@H]3c4nc[nH]c4CCN3C(=O)c3oc(C(C)(C)O)nc3C(F)F)nc12 [Example 427, (S)-(4-(difluoromethyl)-2-(2-hydroxypropan-2-yl)oxazol-5-yl)(4-(4-methoxybenzo[d]oxazol-2-yl)-6,7-dihydro-1H-imidazo[4,5-c]pyridin-5(4H)-yl)methanone] |
| 1000 to 5000 | COc1cccc2oc([C@H]3c4nc[nH]c4CCN3C(=O)c3oc(C(C)(C)O)nc3C(F)F)nc12 [Example 428, (R)-(4-(difluoromethyl)-2-(2-hydroxypropan-2-yl)oxazol-5-yl)(4-(4-methoxybenzo[d]oxazol-2-yl)-6,7-dihydro-1H-imidazo[4,5-c]pyridin-5(4H)-yl)methanone] |
| ≤ 500 | COc1cccc2oc([C@@H]3c4nc[nH]c4CCN3C(=O)c3ocnc3C(F)F)nc12 [Example 429, (S)-(4-(difluoromethyl)oxazol-5-yl)(4-(4-methoxybenzo[d]oxazol-2-yl)-6,7-dihydro-1H-imidazo[4,5-c]pyridin-5(4H)-yl)methanone] |
| 500 to 1000 | COc1cccc2oc([C@H]3c4nc[nH]c4CCN3C(=O)c3ocnc3C(F)F)nc12 [Example 430, (R)-(4-(difluoromethyl)oxazol-5-yl)(4-(4-methoxybenzo[d]oxazol-2-yl)-6,7-dihydro-1H-imidazo[4,5-c]pyridin-5(4H)-yl)methanone] |
| ≤ 500 | CC(C)(O)c1nc(C(F)F)c(C(=O)N2CCc3[nH]cnc3[C@H]2c2nc3c(Br)cccc3o2)o1 [Example 431, (S)-(4-(4-bromobenzo[d]oxazol-2-yl)-6,7-dihydro-1H-imidazo[4,5-c]pyridin-5(4H)-yl)(4-(difluoromethyl)-2-(2-hydroxypropan-2-yl)oxazol-5-yl)methanone] |
